Assay results: patent publication US7671091B2, “Penis enlargement” (priority 2004, dated 2010)

Legend:
human penis [1] = test: Permanent increase in erect penis length and girth after repeated intracavernosal vasodilator treatment of male patients; format: in vivo
Text: The term “penis length” refers to the maximum length of the penis, as measured along the dorsal surface of the penis from the symphysis pubis to the tip or end of the glans penis when the glans penis is pulled manually and put under tension. Preferably, the measurement is taken when the penis is fully erect.
The term “penis girth” refers to the largest measured value obtained for circumference of the erect penis, as measured in the midshaft region (middle third). Preferably, the measurement is taken when the penis is fully erect.
An engorgement is deemed “cumulative prolonged” when an erectile response lasts for at least 3 hours over a 24 hours period.
(§1) Therefore, a “cumulative prolonged engorgement” would be an erectile response that is over 40% for a period of at least 3 hours in a 24 hours period.
A patient was treated with intracavernosal injections of a vasodilator, prostaglandin E1, on a regular basis (approximately four to five times per week) over an 18 month treatment period. […] The quantity of medication was adjusted from time to time in accordance with the patient's response, which was monitored at least weekly. […]
A patient was treated with intracavernosal injections of a quadruple mix of the vasodilators prostaglandin E1, Atropine, Chlorpromazine and Papavarine on a regular basis (approximately two to four times per week) over a 4-month treatment period. […] The quantity of medication was adjusted in accordance with the patient's response. The potentiator dihydrotestosterone 5% ointment was administered […] starting two weeks before starting the IC injections of the vasodilators Atropine, Chlorpromazine and Papavarine and prostaglandin.

human penis [2] = settings: in vivo
Description: as §1
(§2) The quantity of medication was adjusted in accordance with the patient's response.
as §2

[3] = Example 1: patient, 18-month treatment

Row | Structure (SMILES) | increase in erect penis length (human penis [1]; Example 6: patient, 4 months, frequently with oral Viagra, dihydrotestosterone gel) [%] | erect penis length after treatment (human penis [1]; Example 6: patient, intracavernosal 2-4 times per week, 4 months, frequently combined with oral Viagra, potentiator dihydrotestosterone gel, from 5.2 inches) [inches] | increase in erect penis girth (human penis [1]; [3]) [%] | increase in erect penis length (human penis [1]; [3]) [%] | fully erect penis girth after treatment (human penis [1]; Example 1: patient, 18-month treatment, from 3.7 inches) [inches] | fully erect penis length after treatment (human penis [1]; Example 1: patient, intracavernosal, approx. 4-5 times per week, 18-month treatment, from 5.8 inches) [inches] | increase in erect penis length (human penis [1]; Example 10: patient, 3 months, with daily subcutaneous dihydrotestosterone) [%] | erect penis length after treatment (human penis [1]; Example 10: patient, two separate IC injections per treatment day, 2-5 times per week, 3 months, dihydrotestosterone 15 mg subcutaneously into the penis daily, from 6.3 inches) [inches] | tolerability (sensitivity) (human penis [2])
1 | Cc1ccc(N(CC2=NCCN2)c2cccc(O)c2)cc1 [phentolamine] | ~25 | 6.5 |  |  |  |  |  |  | 
2 | CCCCC[C@H](O)/C=C/[C@H]1[C@H](O)CC(=O)[C@@H]1CCCCCCC(=O)O [prostaglandin E1] |  |  | ~56 | ~48 | 5.8 | 8.6 | ~13 | 7.1 | aching and pain at higher doses
